Test results taken from PubChem BioAssay (NCI).
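Dose response: 5 concentrations. Exposure: 48 h. Format: 96-well plates. Endpoint: linear interpolation; highest concentration if not reached. At the TGI there is no net growth.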

Columns and labels:
Test in all cases: inhibition of tumour cell growth, NCI panel, 48 h
HOP-92 NSCLC = test system: HOP-92 NSCLC
MDA-N = test system: MDA-N
COLO 205 colon = test system: COLO 205 colon
SK-MEL-5 melanoma = test system: SK-MEL-5 melanoma
DU-145 prostate = test system: DU-145 prostate
HS 578T breast = test system: HS 578T breast
NCI-H460 lung = test system: NCI-H460 lung
CAKI-1 renal = test system: CAKI-1 renal
SK-MEL-28 melanoma = test system: SK-MEL-28 melanoma
OVCAR-3 ovarian = test system: OVCAR-3 ovarian
NCI-H522 lung = test system: NCI-H522 lung
MALME-3M melanoma = test system: MALME-3M melanoma
M14 melanoma = test system: M14 melanoma
LOX IMVI melanoma = test system: LOX IMVI melanoma
ACHN renal = test system: ACHN renal
HCC-2998 colon = test system: HCC-2998 colon
PC-3 prostate = test system: PC-3 prostate
HCT-116 colon = test system: HCT-116 colon
KM12 colon = test system: KM12 colon
SK-MEL-2 melanoma = test system: SK-MEL-2 melanoma
786-0 renal = test system: 786-0 renal
RXF 393 renal = test system: RXF 393 renal
OVCAR-4 ovarian = test system: OVCAR-4 ovarian
MOLT-4 leukemia = test system: MOLT-4 leukemia
SR leukemia = test system: SR leukemia
T-47D breast = test system: T-47D breast
SW-620 colon = test system: SW-620 colon
K-562 leukemia = test system: K-562 leukemia
HCT-15 colon = test system: HCT-15 colon
EKVX NSCLC = test system: EKVX NSCLC
U251 CNS = test system: U251 CNS
SNB-19 CNS = test system: SNB-19 CNS
SF-295 CNS = test system: SF-295 CNS
NCI/ADR-RES ovarian = test system: NCI/ADR-RES ovarian
HL-60(TB) leukemia = test system: HL-60(TB) leukemia
IGROV1 ovarian = test system: IGROV1 ovarian
TK-10 renal = test system: TK-10 renal
OVCAR-8 ovarian = test system: OVCAR-8 ovarian
OVCAR-5 ovarian = test system: OVCAR-5 ovarian
MCF7 breast = test system: MCF7 breast
SN12C renal = test system: SN12C renal
A549 NSCLC = test system: A549 NSCLC
SK-OV-3 ovarian = test system: SK-OV-3 ovarian
SF-539 CNS = test system: SF-539 CNS
SF-268 CNS = test system: SF-268 CNS
NCI-H226 lung = test system: NCI-H226 lung
HT29 colon = test system: HT29 colon
HOP-62 NSCLC = test system: HOP-62 NSCLC
MDA-MB-231 breast = test system: MDA-MB-231 breast
UO-31 renal = test system: UO-31 renal
UACC-62 melanoma = test system: UACC-62 melanoma
BT-549 breast = test system: BT-549 breast
A498 renal = test system: A498 renal
MDA-MB-435 = test system: MDA-MB-435
UACC-257 melanoma = test system: UACC-257 melanoma
RPMI-8226 leukemia = test system: RPMI-8226 leukemia
CCRF-CEM leukemia = test system: CCRF-CEM leukemia
NCI-H23 lung = test system: NCI-H23 lung
SNB-75 CNS = test system: SNB-75 CNS

## Cc1ccc(S(=O)(=O)C2=C([Si](C)(C)C)C3CC2[C@@H]2C4C=CC(CC4)[C@H]32)cc1 (stereo partly specified)
HOP-92 NSCLC
  TGI: > 100 µM
MDA-N
  TGI: > 100 µM
COLO 205 colon
  TGI: > 100 µM
SK-MEL-5 melanoma
  TGI: > 100 µM
DU-145 prostate
  TGI: > 100 µM
HS 578T breast
  TGI: > 100 µM
NCI-H460 lung
  TGI: > 100 µM
CAKI-1 renal
  TGI: > 100 µM
SK-MEL-28 melanoma
  TGI: > 100 µM
OVCAR-3 ovarian
  TGI: > 100 µM
NCI-H522 lung
  TGI: > 100 µM
MALME-3M melanoma
  TGI: > 100 µM
M14 melanoma
  TGI: > 100 µM
LOX IMVI melanoma
  TGI: > 100 µM
ACHN renal
  TGI: > 100 µM
HCC-2998 colon
  TGI: > 100 µM
PC-3 prostate
  TGI: > 100 µM
HCT-116 colon
  TGI: > 100 µM
KM12 colon
  TGI: > 100 µM
SK-MEL-2 melanoma
  TGI: 77.4 µM
786-0 renal
  TGI: > 100 µM
RXF 393 renal
  TGI: > 100 µM
OVCAR-4 ovarian
  TGI: > 100 µM
MOLT-4 leukemia
  TGI: > 100 µM
SR leukemia
  TGI: > 100 µM
T-47D breast
  TGI: > 100 µM
SW-620 colon
  TGI: > 100 µM
K-562 leukemia
  TGI: > 100 µM
HCT-15 colon
  TGI: > 100 µM
EKVX NSCLC
  TGI: > 100 µM
U251 CNS
  TGI: > 100 µM
SNB-19 CNS
  TGI: 76.1 µM
SF-295 CNS
  TGI: > 100 µM
NCI/ADR-RES ovarian
  TGI: > 100 µM
HL-60(TB) leukemia
  TGI: > 100 µM
IGROV1 ovarian
  TGI: > 100 µM
TK-10 renal
  TGI: 99.2 µM
OVCAR-8 ovarian
  TGI: > 100 µM
OVCAR-5 ovarian
  TGI: > 100 µM
MCF7 breast
  TGI: > 100 µM
SN12C renal
  TGI: > 100 µM
A549 NSCLC
  TGI: > 100 µM
SK-OV-3 ovarian
  TGI: > 100 µM
SF-539 CNS
  TGI: 88 µM
SF-268 CNS
  TGI: > 100 µM
NCI-H226 lung
  TGI: > 100 µM
HT29 colon
  TGI: > 100 µM
HOP-62 NSCLC
  TGI: > 100 µM
MDA-MB-231 breast
  TGI: > 100 µM
UO-31 renal
  TGI: > 100 µM
UACC-62 melanoma
  TGI: > 100 µM
BT-549 breast
  TGI: > 100 µM
A498 renal
  TGI: > 100 µM
MDA-MB-435
  TGI: > 100 µM
UACC-257 melanoma
  TGI: > 100 µM

## CC1C2CC(CC23OCC(CCl)O3)C1(C)C (stereo unspecified)
HOP-92 NSCLC
  TGI: > 100 µM
MDA-N
  TGI: > 100 µM
COLO 205 colon
  TGI: > 100 µM
SK-MEL-5 melanoma
  TGI: > 100 µM
DU-145 prostate
  TGI: > 100 µM
HS 578T breast
  TGI: > 100 µM
NCI-H460 lung
  TGI: > 100 µM
CAKI-1 renal
  TGI: > 100 µM
SK-MEL-28 melanoma
  TGI: > 100 µM
OVCAR-3 ovarian
  TGI: > 100 µM
RPMI-8226 leukemia
  TGI: > 100 µM
NCI-H522 lung
  TGI: > 100 µM
MALME-3M melanoma
  TGI: > 100 µM
M14 melanoma
  TGI: > 100 µM
LOX IMVI melanoma
  TGI: > 100 µM
ACHN renal
  TGI: > 100 µM
HCC-2998 colon
  TGI: > 100 µM
PC-3 prostate
  TGI: > 100 µM
HCT-116 colon
  TGI: > 100 µM
KM12 colon
  TGI: > 100 µM
786-0 renal
  TGI: > 100 µM
RXF 393 renal
  TGI: > 100 µM
OVCAR-4 ovarian
  TGI: > 100 µM
CCRF-CEM leukemia
  TGI: > 100 µM
MOLT-4 leukemia
  TGI: > 100 µM
SR leukemia
  TGI: > 100 µM
T-47D breast
  TGI: > 100 µM
NCI-H23 lung
  TGI: > 100 µM
SW-620 colon
  TGI: > 100 µM
K-562 leukemia
  TGI: > 100 µM
HCT-15 colon
  TGI: > 100 µM
EKVX NSCLC
  TGI: > 100 µM
SNB-19 CNS
  TGI: > 100 µM
SF-295 CNS
  TGI: > 100 µM
NCI/ADR-RES ovarian
  TGI: > 100 µM
HL-60(TB) leukemia
  TGI: > 100 µM
IGROV1 ovarian
  TGI: > 100 µM
TK-10 renal
  TGI: > 100 µM
OVCAR-8 ovarian
  TGI: > 100 µM
MCF7 breast
  TGI: > 100 µM
SN12C renal
  TGI: > 100 µM
A549 NSCLC
  TGI: > 100 µM
SK-OV-3 ovarian
  TGI: > 100 µM
SF-539 CNS
  TGI: > 100 µM
SF-268 CNS
  TGI: > 100 µM
NCI-H226 lung
  TGI: > 100 µM
HT29 colon
  TGI: > 100 µM
HOP-62 NSCLC
  TGI: > 100 µM
MDA-MB-231 breast
  TGI: > 100 µM
UO-31 renal
  TGI: > 100 µM
UACC-62 melanoma
  TGI: > 100 µM
BT-549 breast
  TGI: > 100 µM
A498 renal
  TGI: > 100 µM
MDA-MB-435
  TGI: > 100 µM
SNB-75 CNS
  TGI: > 100 µM
UACC-257 melanoma
  TGI: > 100 µM
